Source: ChEMBL document CHEMBL1151188, “Cytotoxic withaphysalins from the leaves of Acnistus arborescens” (2004)
In brackets after ≈: the same amount, converted by molar mass.

Legend:
Assay type in all cases: functional
Details in all cases: read-out: ED50 (the source's name)
MCF7 = assay: Cytotoxicity against human MCF7 cells
LNCaP = assay: Cytotoxicity against human LNCAP cells
Lu1 = assay: Cytotoxicity against human Lu1 cells

SMILES | EC50 (MCF7) [µg/mL] | EC50 (LNCaP) [µg/mL] | EC50 (Lu1) [µg/mL]
CC1=C(C)C(=O)O[C@@H]([C@]2(C)OC(=O)[C@]34CC[C@H]5[C@@H](C[C@H]6O[C@]67[C@@H](O)CCC(=O)[C@]57C)[C@@H]3CC[C@H]24)C1 (relative stereo) [WITHAPHYSALIN N] | 15 (≈ 31 µM) | > 20 | 9.3 (≈ 19.2 µM)
CCOC1O[C@@](C)([C@H]2CC(C)=C(C)C(=O)O2)[C@H]2CC[C@H]3[C@@H]4C[C@H]5O[C@]56[C@@H](O)C=CC(=O)[C@]6(C)[C@H]4CC[C@]123 (relative stereo) [WITHAPHYSALIN O] | 1 (≈ 1.95 µM) | 0.9 (≈ 1.76 µM) | 0.16 (≈ 0.312 µM)
CC1=C(C)C(=O)O[C@@H]([C@]2(C)OC(=O)[C@]34CC[C@H]5[C@@H](C[C@H]6O[C@]67[C@@H](O)C=CC(=O)[C@]57C)[C@@H]3CC[C@H]24)C1 (relative stereo) [WITHAPHYSALIN M] | 1.2 (≈ 2.49 µM) | 1 (≈ 2.07 µM) | 0.22 (≈ 0.456 µM)
